Activity calls are given as the source filed them. No cut-off for these calls is given here.
Assays:
[1] = target: T1, 4-diphosphocytidyl-2-C-methyl-D-erythritol kinase (Burkholderia thailandensis (strain ATCC 700388 / DSM 13276 / CIP106301 / E264)) (UniProt Q2T1B6); test: Binding affinity to Burkholderia thailandensis E264 recombinant IspE (1 to 293 residues) at 250 uM by STD-NMR analysis in presence of ADP
T1 sequence (whole entry): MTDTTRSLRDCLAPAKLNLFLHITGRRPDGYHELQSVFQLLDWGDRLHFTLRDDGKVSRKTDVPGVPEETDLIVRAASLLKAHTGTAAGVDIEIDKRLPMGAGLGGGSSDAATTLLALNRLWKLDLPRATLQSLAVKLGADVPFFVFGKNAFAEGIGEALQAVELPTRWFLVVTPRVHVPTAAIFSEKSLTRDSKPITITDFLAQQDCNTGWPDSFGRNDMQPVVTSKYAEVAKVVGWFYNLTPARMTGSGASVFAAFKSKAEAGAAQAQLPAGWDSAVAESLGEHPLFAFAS

[2] = target: T1, 4-diphosphocytidyl-2-C-methyl-D-erythritol kinase (Burkholderia thailandensis (strain ATCC 700388 / DSM 13276 / CIP106301 / E264)); test: Binding affinity to Burkholderia thailandensis E264 recombinant IspE (1 to 293 residues) assessed as maximum spectral signal at 250 uM by STD-NMR analysis
[3] = target: T1, 4-diphosphocytidyl-2-C-methyl-D-erythritol kinase (Burkholderia thailandensis (strain ATCC 700388 / DSM 13276 / CIP106301 / E264)); test: Binding affinity to Burkholderia thailandensis E264 recombinant IspE (1 to 293 residues) at 250 uM by STD-NMR analysis in presence of ADP and CDP
[4] = target: T2, 2-C-methyl-D-erythritol 4-phosphate cytidylyltransferase (Burkholderia thailandensis (strain ATCC 700388 / DSM 13276 / CIP106301 / E264)) (UniProt Q2SWT6); test: Binding affinity to Burkholderia thailandensis E264 recombinant IspD (1 to 236 residues) assessed as maximum spectral signal at 250 uM by STD-NMR analysis
T2 sequence (whole entry): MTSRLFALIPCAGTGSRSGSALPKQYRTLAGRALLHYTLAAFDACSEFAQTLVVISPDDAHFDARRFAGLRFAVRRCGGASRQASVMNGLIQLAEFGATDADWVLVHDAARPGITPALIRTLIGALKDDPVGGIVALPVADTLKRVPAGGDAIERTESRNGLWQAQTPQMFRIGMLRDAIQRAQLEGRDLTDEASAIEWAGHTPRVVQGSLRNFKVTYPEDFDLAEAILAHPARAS

[5] = target: T2, 2-C-methyl-D-erythritol 4-phosphate cytidylyltransferase (Burkholderia thailandensis (strain ATCC 700388 / DSM 13276 / CIP106301 / E264)); test: Binding affinity to Burkholderia thailandensis E264 recombinant IspD (1 to 236 residues) at 250 uM by STD-NMR analysis in presence of CDP
Pseudomonas aeruginosa [6] = test: Antibacterial activity against Pseudomonas aeruginosa ATCC 27853 at 1 mM after 24 to 48 hrs by Kirby-Bauer disc diffusion susceptibility test; type: functional; conditions: read-out: DIZ
[7] = system: Burkholderia thailandensis; test: Antibacterial activity against Burkholderia thailandensis E264 at 0.5 mM after 24 to 48 hrs by Kirby-Bauer disc diffusion susceptibility test; type: functional; conditions: read-out: DIZ
[8] = system: Burkholderia thailandensis; test: Antibacterial activity against Burkholderia thailandensis E264 at 1 mM after 24 to 48 hrs by Kirby-Bauer disc diffusion susceptibility test; type: functional; conditions: read-out: DIZ
Pseudomonas aeruginosa [9] = test: Antibacterial activity against Pseudomonas aeruginosa ATCC 27853 at 0.5 mM after 24 to 48 hrs by Kirby-Bauer disc diffusion susceptibility test; type: functional; conditions: read-out: DIZ
Pseudomonas aeruginosa [10] = test: Antibacterial activity against Pseudomonas aeruginosa ATCC 27853 at 0.1 mM after 24 to 48 hrs by Kirby-Bauer disc diffusion susceptibility test; type: functional; conditions: read-out: DIZ
[11] = system: Burkholderia thailandensis; test: Antibacterial activity against Burkholderia thailandensis E264 at 0.1 mM after 24 to 48 hrs by Kirby-Bauer disc diffusion susceptibility test; type: functional; conditions: read-out: DIZ

SMILES	Activity [1]	%max [2]	Activity [3]	%max [4]	Activity [5]	zone of inhibition at 1000 µM (Pseudomonas aeruginosa [6])	zone of inhibition at 500 µM [7]	zone of inhibition at 1000 µM [8]	zone of inhibition at 500 µM (Pseudomonas aeruginosa [9])	zone of inhibition at 100 µM (Pseudomonas aeruginosa [10])	zone of inhibition at 100 µM [11]
Cn1ncc2c(NCCc3ccccc3F)ncnc21	Active	10%	inactive	–	–	–	–	–	–	–	–
Cn1ncc2c(NCCc3ccc(Cl)cc3Cl)ncnc21	Active	28%	inactive	8%	Active	–	–	–	–	–	–
Cn1ncc2c(NCCc3c[nH]c4ccccc34)ncnc21	Active	14%	inactive	–	–	0 mm	12 mm	14 mm	0 mm	0 mm	0 mm
Cn1ncc2c(NCCc3cccc(F)c3)ncnc21	Active	17%	inactive	–	–	–	–	–	–	–	–
CC(C)(C)n1ncc2c(NCc3ccccc3)ncnc21	Active	15%	inactive	–	–	–	–	–	–	–	–
CC(C)(C)n1ncc2c(NCCO)ncnc21	–	–	–	–	–	20 mm	8 mm	12 mm	12 mm	0 mm	0 mm
Cn1ncc2c(NCc3ccccc3F)ncnc21	Active	14%	inactive	–	–	–	–	–	–	–	–
CC(C)(C)n1ncc2c(NCc3ccco3)ncnc21	Active	17%	inactive	–	–	–	–	–	–	–	–
Cn1ncc2c(NCCc3ccc(O)cc3)ncnc21	Active	16%	inactive	14%	Active	–	–	–	–	–	–
Cn1ncc2c(NCc3ccc(F)cc3)ncnc21	Active	20%	inactive	–	–	–	–	–	–	–	–
CC(C)(C)n1ncc2c(NCc3cccc([N+](=O)[O-])c3)ncnc21	Active	21%	inactive	–	–	–	–	–	–	–	–
CC(C)(C)n1ncc2c(NCc3ccc(Cl)c(Cl)c3)ncnc21	Active	21%	inactive	–	–	–	–	–	–	–	–
Cn1ncc2c(NCCc3ccc(F)cc3)ncnc21	Active	11%	inactive	–	–	–	–	–	–	–	–
CC(C)(C)n1ncc2c(NCCc3c(F)cccc3Cl)ncnc21	Active	17%	inactive	10%	inactive	–	–	–	–	–	–
C[C@H](Nc1ncnc2c1cnn2C)c1ccccc1	Active	17%	inactive	–	–	–	–	–	–	–	–
NC[C@H]1O[C@H](O[C@H]2[C@H](O)[C@@H](O[C@H]3O[C@H](CO)[C@@H](O)[C@H](N)[C@H]3O)[C@H](N)C[C@@H]2N)[C@H](O)[C@@H](O)[C@@H]1O [KANAMYCIN]	–	–	–	–	–	0 mm	22 mm	30 mm	0 mm	0 mm	6 mm
Cn1ncc2c(NCc3ccc(Cl)cc3)ncnc21	Active	12%	inactive	6%	Active	–	–	–	–	–	–
Cn1ncc2c(NCc3ccccc3)ncnc21	Active	13%	inactive	–	–	–	–	–	–	–	–
Cn1ncc2c(NCCc3c(F)cccc3Cl)ncnc21	Active	14%	inactive	6%	inactive	–	–	–	–	–	–
Cn1ncc2c(NCc3cccc(F)c3)ncnc21	Active	24%	inactive	–	–	–	–	–	–	–	–
Cn1ncc2c(NCCc3ccc(Cl)cc3)ncnc21	Active	12%	inactive	–	–	–	–	–	–	–	–
CC(C)(C)n1ncc2c(NCCc3c(Cl)cccc3Cl)ncnc21	Active	12%	inactive	–	–	–	–	–	–	–	–
Cn1ncc2c(NCc3ccc(Cl)c(Cl)c3)ncnc21	Active	24%	inactive	6%	Active	–	–	–	–	–	–

Reference: ChEMBL document CHEMBL3734707, “Synthesis and biological evaluation of pyrazolopyrimidines as potential antibacterial agents” (2015)
